Assay results published in patent US20110143999A1, “FOWLICIDINS AND METHODS OF ITS USE” (priority 2005, published 2011).
Values after ≈ are worked out from the molar mass of the structure shown. Where two headings read alike, the source gives them in different places. Residues, ends and D or L forms follow the SMILES beside them.

Assays:
[1] = test system: L. monocytogenes ATCC 19115
MDCK cells [2] = experiment: Cytotoxicity assay (alamarBlue)
E. coli ATCC 25922 [3] = test system: E. coli ATCC 25922
S. aureus ATCC 25923 [4] = test system: S. aureus ATCC 25923
K. pneumoniae ATCC 13883 [5] = test system: K. pneumoniae ATCC 13883
[6] = test system: Gram-negative and Gram-positive bacteria; details: Example 4, summary of Table VII
[7] = test system: S. typhimurium ATCC 14028
[8] = test system: S. typhimurium DT104 ATCC 700408
[9] = test system: S. aureus (MRSA) ATCC 43300
[10] = test system: S. enteritidis ATCC 13076
MDCK cells [11] = test system: MDCK cells
[12] = test system: S. aureus (MRSA) ATCC BAA-39
[13] = test system: three Gram-negative and four Gram-positive bacteria; details: Example 3; 20% TSB, 25 mM NaHCO3, 1 mM NaH2PO4, with or without 100 mM NaCl
S. aureus ATCC 25923 [14] = test system: S. aureus ATCC 25923; remark: listed apart in the source
[15] = test system: L. monocytogenes ATCC 19115; experiment: Modified broth microdilution assay (1% MHB); details: Table V, Example 2, listed as fowlicidin-1-K^7L^12K^14L^16K^18
[16] = test system: S. typhimurium ATCC 14028; remark: listed apart in the source
LPS from E. coli O111:B4 = experiment: LPS binding assay (chromogenic Limulus amebocyte lysate); details: Table V; 50% inhibition of LPS-mediated procoagulant activation
E. coli ATCC 25922 [17] = test system: E. coli ATCC 25922; remark: listed apart in the source
[18] = test system: S. aureus (MRSA) ATCC BAA-39; remark: listed apart in the source
[19] = test system: S. typhimurium DT104 ATCC 700408; remark: listed apart in the source
K. pneumoniae ATCC 13883 [20] = test system: K. pneumoniae ATCC 13883; remark: listed apart in the source
[21] = test system: E. coli O157:H7 ATCC 700728; details: 1% MHB

CC[C@H](C)[C@H](NC(=O)CNC(=O)[C@H](C)NC(=O)[C@H](C)NC(=O)[C@@H](NC(=O)[C@@H](NC(=O)[C@H](CC(N)=O)NC(=O)[C@@H](NC(=O)[C@H](C)NC(=O)[C@@H](NC(=O)[C@@H]1CCCN1C(=O)[C@@H](NC(=O)[C@H](CC(C)C)NC(=O)[C@@H]1CCCN1C(=O)[C@H](Cc1c[nH]c2ccccc12)NC(=O)[C@H](Cc1ccccc1)NC(=O)[C@H](CCCNC(=N)N)NC(=O)[C@@H](N)CCCCN)C(C)C)C(C)C)[C@@H](C)CC)[C@@H](C)O)C(C)C)C(=O)N[C@@H](CC(N)=O)C(=O)N[C@@H](CC(C)C)C(=O)N[C@@H](Cc1ccc(O)cc1)C(=O)N[C@@H](CCCCN)C(=O)N[C@@H](C)C(=O)N[C@H](C(=O)N[C@@H](CCCNC(=N)N)C(=O)N[C@@H](CCCNC(=N)N)C(=O)N[C@@H](CCCCN)C(=O)O)[C@@H](C)CC [Fowlicidin-3] (H-KRFWPLVPVAINTVAAGINLYKAIRRK-OH; N-terminus and C-terminus assumed)
MIC [1]: 2 µM (≈ 6.19 µg/mL) | cytotoxicity (EC50) fold higher than MICs (MDCK cells [2]; in the presence of serum, against all bacterial strains tested): 10-to 40 fold | EC50 (MDCK cells [2]; read-out: 50% effective concentration (EC50), MDCK cell killing, Example 4, without serum, FIG. 20A): 12 µM | MIC (E. coli ATCC 25922 [3]): 2 µM (≈ 6.19 µg/mL) | MIC (S. aureus ATCC 25923 [4]): 1 µM (≈ 3.1 µg/mL) | MIC (K. pneumoniae ATCC 13883 [5]): 1 µM (≈ 3.1 µg/mL) | MICs (range over bacteria tested) [6]: 1 to 2 µM | MIC [7]: 2 µM (≈ 6.19 µg/mL) | MIC [8]: 2 µM (≈ 6.19 µg/mL) | MIC [9]: 1 µM (≈ 3.1 µg/mL) | MIC [10]: 2 µM (≈ 6.19 µg/mL) | fold reduction in toxicity in the presence of 10% FBS (MDCK cells [11]): 2 fold | MIC [12]: 1 µM (≈ 3.1 µg/mL)

CC[C@H](C)[C@H](NC(=O)[C@@H](NC(=O)[C@@H](NC(=O)[C@@H](NC(=O)[C@@H](NC(=O)[C@H](CCCCN)NC(=O)[C@@H]1CCCN1)C(C)C)[C@@H](C)O)[C@@H](C)CC)[C@@H](C)O)C(=O)N[C@@H](CCC(N)=O)C(=O)NCC(=O)N[C@@H](CO)C(=O)N[C@@H](C)C(=O)N[C@@H](CCCNC(=N)N)C(=O)N[C@@H](Cc1ccccc1)C(=O)O [Fowl-2(19-31)] (H-PKVTITIQGSARF-OH; N-terminus and C-terminus assumed)
MIC (range over bacteria tested) [13]: > 32 µM

CC[C@H](C)[C@H](NC(=O)[C@H](C)NC(=O)[C@H](CCCNC(=N)N)NC(=O)[C@H](Cc1ccc(O)cc1)NC(=O)[C@H](CC(C)C)NC(=O)[C@H](CCCCN)NC(=O)[C@H](Cc1ccc(O)cc1)NC(=O)[C@H](CC(C)C)NC(=O)[C@H](C)NC(=O)[C@H](CCCCN)NC(=O)[C@@H](NC(=O)[C@H](CC(C)C)NC(=O)[C@H](CCCNC(=N)N)NC(=O)[C@@H](NC(=O)[C@@H](NC(=O)[C@H](CC(C)C)NC(=O)[C@H](CCCCN)NC(=O)[C@H](Cc1c[nH]c2ccccc12)NC(=O)[C@@H](NC(=O)[C@H](CCCNC(=N)N)NC(=O)[C@H](CCCCN)NC(=O)[C@@H](NC(=O)[C@@H](N)CCCNC(=N)N)C(C)C)C(C)C)C(C)C)[C@@H](C)CC)C(C)C)C(=O)N[C@@H](CCCCN)C(=O)N[C@@H](CCCCN)C(=O)N[C@@H](CCCCN)C(=O)O [Fowl-1-KLKLK] (H-RVKRVWKLVIRLVKALYKLYRAIKKK-OH; N-terminus assumed)
Antibacterial Activity (MIC, μM) S. aureus (S. aureus ATCC 25923 [14]): 1.9 µM | Antibacterial Activity (MIC, μM) Listeria [15]: > 7.6 µM | Antibacterial Activity (MIC, μM) Salmonella [16]: 1.9 µM | EC50 (LPS from E. coli O111:B4): 6 µM | Antibacterial Activity (MIC, μM) E. coli (E. coli ATCC 25922 [17]; Table V, Example 2, 1% MHB, listed as fowlicidin-1-K^7L^12K^14L^16K^18): > 7.6 µM | EC50: 11 µM

CC[C@H](C)[C@H](NC(=O)[C@H](CCCCN)NC(=O)[C@H](CCCNC(=N)N)NC(=O)[C@H](CC(C)C)NC(=O)[C@H](Cc1ccccc1)NC(=O)[C@H](CCCNC(=N)N)NC(=O)CNC(=O)[C@H](Cc1ccccc1)NC(=O)[C@H](CCCNC(=N)N)NC(=O)CNC(=O)[C@H](CCCNC(=N)N)NC(=O)[C@H](CCC(N)=O)NC(=O)[C@@H](NC(=O)[C@@H](N)CC(C)C)C(C)C)C(=O)N[C@@H](CCCNC(=N)N)C(=O)N[C@@H](CCCNC(=N)N)C(=O)N[C@@H](Cc1ccccc1)C(=O)N[C@@H](CCCNC(=N)N)C(=O)N1CCC[C@H]1C(=O)N[C@@H](CCCCN)C(=O)N[C@H](C(=O)N[C@H](C(=O)N[C@H](C(=O)N[C@H](C(=O)N[C@H](C(=O)N[C@@H](CCC(N)=O)C(=O)NCC(=O)N[C@@H](CO)C(=O)N[C@@H](C)C(=O)N[C@@H](CCCNC(=N)N)C(=O)N[C@@H](Cc1ccccc1)C(=O)O)[C@@H](C)CC)[C@@H](C)O)[C@@H](C)CC)[C@@H](C)O)C(C)C [Fowlicidin-2] (H-LVQRGRFGRFLRKIRRFRPKVTITIQGSARF-OH; N-terminus and C-terminus assumed)
MIC (S. aureus ATCC 25923 [14]): 0.66 µM (≈ 2.48 µg/mL) | MIC [18]: 0.66 µM (≈ 2.48 µg/mL) | MIC (range over bacteria tested) [13]: 0.5 to 2 µM | MIC [19]: 0.66 µM (≈ 2.48 µg/mL) | MIC (K. pneumoniae ATCC 13883 [20]): 0.66 µM (≈ 2.48 µg/mL) | MIC ([21]; NaCl 0 mM): 0.66 µM (≈ 2.48 µg/mL) | MIC ([21]; NaCl 100 mM): 1.33 µM (≈ 5 µg/mL) | MIC (E. coli ATCC 25922 [17]): 2.66 µM (≈ 10 µg/mL)
